This passage reports IC50 results from patent US11203613B2, “Peptidomimetic proteasome inhibitors” (CORNELL UNIVERSITY, priority 2017, dated 2021).

Structures are written as SMILES.

The assay addresses Human Constitutive (Hu C-20S) β5 Active Subunit (Homo sapiens, UniProt P28074). As to the kind of experiment: IC50 determination, human constitutive 20S proteasome β5c (suc-LLVY-AMC hydrolysis). Type of assay: biochemical. The following applies: Table 3; IC50 against human constitutive β5 active subunit; read-out: Hu-C20S β5.
For the compound `C[C@H]1CCCCN1C(=O)C[C@H](NC(=O)C1CC2(C1)CC(F)(F)C2)C(=O)NC1(c2nc3cccc(F)c3[nH]2)CC1` (stereo in doubt) [CEN-62, 6,6-Difluoro-N—((S)-1-((1-(7-fluoro-1H-benzo[d]imidazol-2-yl)cyclopropyl)amino)-4-((S)-2-methylpiperidin-1-yl)-1,4-dioxobutan-2-yl)spiro[3.3]heptane-2-carboxamide], the IC50 was 2.4 µM.

Regarding `CC[C@H]1CCCCN1C(=O)C[C@H](N)C(=O)N[C@@H](C)c1nc2c(F)cccc2[nH]1` [CEN-1, (S)-2-Amino-4-((S)-2-ethylpiperidin-1-yl)-N—((S)-1-(4-fluoro-1H-benzo[d]imidazol-2-yl)ethyl)-4-oxobutanamide], the IC50 worked out at 14.2 µM.

For the compound `CC[C@H]1CCCCN1C(=O)C[C@H](NC(=O)CC1CC1)C(=O)N[C@@H](C)c1nc2c(F)cccc2[nH]1` [CEN-2, (S)-2-(2-Cyclopropylacetamido)-4-((S)-2-ethylpiperidin-1-yl)-N—((S)-1-(4-fluoro-1H-benzo[d]imidazol-2-yl)ethyl)-4-oxobutanamide], the IC50 was found to be 16.9 µM.

With `CC[C@H]1CCCCN1C(=O)C[C@H](NC(=O)CCC(C)C)C(=O)N[C@@H](C)c1nc2c(F)cccc2[nH]1` [CEN-3, N—((S)-4-((S)-2-Ethylpiperidin-1-yl)-1-(((S)-1-(4-fluoro-1H-benzo[d]imidazol-2-yl)ethyl)amino)-1,4-dioxobutan-2-yl)-4-methylpentanamide], the IC50 turned out to be 10.6 µM.

Turning to `CC[C@H]1CCCCN1C(=O)C[C@H](NC(=O)CCN(C)C)C(=O)N[C@@H](C)c1nc2c(F)cccc2[nH]1` [CEN-4, (S)-2-(3-(Dimethylamino)propanamido)-4-((S)-2-ethylpiperidin-1-yl)-N—((S)-1-(4-fluoro-1H-benzo[d]imidazol-2-yl)ethyl)-4-oxobutanamide], the IC50 was 6.4 µM.

As for `CC[C@H]1CCCCN1C(=O)C[C@H](NC(=O)OCC(C)C)C(=O)N[C@@H](C)c1nc2c(F)cccc2[nH]1` [CEN-5, Isobutyl ((S)-4-((S)-2-Ethylpiperidin-1-yl)-1-(((S)-1-(4-fluoro-1H-benzo[d]imidazol-2-yl)ethyl)amino)-1,4-dioxobutan-2-yl)carbamate], the IC50 came to 2.5 µM.

For `CC[C@H]1CCCCN1C(=O)C[C@H](NC(=O)c1cc(C)on1)C(=O)N[C@@H](C)c1nc2c(F)cccc2[nH]1` [CEN-6, N—((S)-4-((S)-2-Ethylpiperidin-1-yl)-1-(((S)-1-(4-fluoro-1H-benzo[d]imidazol-2-yl)ethyl)amino)-1,4-dioxobutan-2-yl)-5-methylisoxazole-3-carboxamide], the IC50 was 7.1 µM.

Turning to `CC[C@H]1CCCCN1C(=O)C[C@H](NC(=O)CC(F)(F)F)C(=O)N[C@@H](C)c1nc2c(F)cccc2[nH]1` [CEN-7, (S)-4-((S)-2-Ethylpiperidin-1-yl)-N—((S)-1-(4-fluoro-1H-benzo[d]imidazol-2-yl)ethyl)-4-oxo-2-(3,3,3-trifluoropropanamido)butanamide], the IC50 came out at 4.2 µM.

On to `CC[C@H]1CCCCN1C(=O)C[C@H](Nc1nc(C(C)C)no1)C(=O)N[C@@H](C)c1nc2c(F)cccc2[nH]1` [CEN-8, (S)-4-((S)-2-Ethylpiperidin-1-yl)-N—((S)-1-(4-fluoro-1H-benzo[d]imidazol-2-yl)ethyl)-2-((3-isopropyl-1,2,4-oxadiazol-5-yl)amino)-4-oxobutanamide], for which the IC50 was found to be 3.6 µM.

With `CC[C@H]1CCCCN1C(=O)C[C@H](NC(=O)C1CC(C)(C)C1)C(=O)N[C@@H](C)c1nc2c(F)cccc2[nH]1` [CEN-9, N—((S)-4-((S)-2-Ethylpiperidin-1-yl)-1-(((S)-1-(4-fluoro-1H-benzo[d]imidazol-2-yl)ethyl)amino)-1,4-dioxobutan-2-yl)-3,3-dimethylcyclobutane-1-carboxamide], the IC50 worked out at 4.4 µM.

With `CC[C@H]1CCCCN1C(=O)C[C@H](NC(=O)C1CC1C(C)C)C(=O)N[C@@H](C)c1nc2c(F)cccc2[nH]1` (stereo partly drawn) [CEN-10, N—((S)-4-((S)-2-Ethylpiperidin-1-yl)-1-(((S)-1-(4-fluoro-1H-benzo[d]imidazol-2-yl)ethyl)amino)-1,4-dioxobutan-2-yl)-2-isopropylcyclopropane-1-carboxamide], the IC50 was determined as 37.7 µM.

On to `CC[C@H]1CCCCN1C(=O)C[C@H](NC(=O)c1cncs1)C(=O)N[C@@H](C)c1nc2c(F)cccc2[nH]1` [CEN-11, N—((S)-4-((S)-2-Ethylpiperidin-1-yl)-1-(((S)-1-(4-fluoro-1H-benzo[d]imidazol-2-yl)ethyl)amino)-1,4-dioxobutan-2-yl)thiazole-5-carboxamide], for which the IC50 was found to be 19.2 µM.

For `CC[C@H]1CCCCN1C(=O)C[C@H](NC(=O)N1CCCCC1)C(=O)N[C@@H](C)c1nc2c(F)cccc2[nH]1` [CEN-12, N—((S)-4-((S)-2-Ethylpiperidin-1-yl)-1-(((S)-1-(4-fluoro-1H-benzo[d]imidazol-2-yl)ethyl)amino)-1,4-dioxobutan-2-yl)piperidine-1-carboxamide], the IC50 worked out at 3 µM.

In the case of `CC[C@H]1CCCCN1C(=O)C[C@H](NC(=O)CCC(C)(C)C)C(=O)N[C@@H](C)c1nc2c(F)cccc2[nH]1` [CEN-13, N—((S)-4-((S)-2-Ethylpiperidin-1-yl)-1-(((S)-1-(4-fluoro-1H-benzo[d]imidazol-2-yl)ethyl)amino)-1,4-dioxobutan-2-yl)-4,4-dimethylpentanamide], the IC50 was found to be 11.2 µM.

As to `CC[C@H]1CCCCN1C(=O)C[C@H](NC(=O)N1CCOCC1)C(=O)N[C@@H](C)c1nc2c(F)cccc2[nH]1` [CEN-14, N—((S)-4-((S)-2-Ethylpiperidin-1-yl)-1-(((S)-1-(4-fluoro-1H-benzo[d]imidazol-2-yl)ethyl)amino)-1,4-dioxobutan-2-yl)morpholine-4-carboxamide], the IC50 was found to be 4.5 µM.

For `CC[C@H]1CCCCN1C(=O)C[C@H](NC(=O)N(C)CC(C)C)C(=O)N[C@@H](C)c1nc2c(F)cccc2[nH]1` [CEN-15, (S)-4-((S)-2-Ethylpiperidin-1-yl)-N—((S)-1-(4-fluoro-1H-benzo[d]imidazol-2-yl)ethyl)-2-(3-isobutyl-3-methylureido)-4-oxobutanamide], the IC50 turned out to be 5 µM.

On to `CC[C@H]1CCCCN1C(=O)C[C@H](Nc1nc2ccccc2o1)C(=O)N[C@@H](C)c1nc2c(F)cccc2[nH]1` [CEN-16, (S)-2-(Benzo[d]oxazol-2-ylamino)-4-((S)-2-ethylpiperidin-1-yl)-N—((S)-1-(4-fluoro-1H-benzo[d]imidazol-2-yl)ethyl)-4-oxobutanamide], for which the IC50 is 4.5 µM.

As to `CC[C@H]1CCCCN1C(=O)C[C@H](NC(=O)C1CC2(CCC2)C1)C(=O)N[C@@H](C)c1nc2c(F)cccc2[nH]1` [CEN-17, N—((S)-4-((S)-2-Ethylpiperidin-1-yl)-1-(((S)-1-(4-fluoro-1H-benzo[d]imidazol-2-yl)ethyl)amino)-1,4-dioxobutan-2-yl)spiro[3.3]heptane-2-carboxamide], the IC50 came out at 13.4 µM.

On to `CC[C@H]1CCCCN1C(=O)C[C@H](NC(=O)c1cnc(C)s1)C(=O)N[C@@H](C)c1nc2c(F)cccc2[nH]1` [CEN-18, N—((S)-4-((S)-2-Ethylpiperidin-1-yl)-1-(((S)-1-(4-fluoro-1H-benzo[d]imidazol-2-yl)ethyl)amino)-1,4-dioxobutan-2-yl)-2-methylthiazole-5-carboxamide], for which the IC50 was found to be 9.5 µM.

For `CC[C@H]1CCCCN1C(=O)C[C@H](Nc1nc2ccc(C)cc2o1)C(=O)N[C@@H](C)c1nc2c(F)cccc2[nH]1` [CEN-19, (S)-4-((S)-2-Ethylpiperidin-1-yl)-N—((S)-1-(4-fluoro-1H-benzo[d]imidazol-2-yl)ethyl)-2-((6-methylbenzo[d]oxazol-2-yl)amino)-4-oxobutanamide], the IC50 amounted to 1.1 µM.

For the compound `CC[C@H]1CCCCN1C(=O)C[C@H](NC(=O)CCc1ccccc1)C(=O)N[C@@H](C)c1nc2c(F)cccc2[nH]1` [CEN-20, (S)-4-((S)-2-Ethylpiperidin-1-yl)-N—((S)-1-(4-fluoro-1H-benzo[d]imidazol-2-yl)ethyl)-4-oxo-2-(3-phenylpropanamido)butanamide], the IC50 worked out at 2.6 µM.

Turning to `CC[C@H]1CCCCN1C(=O)C[C@H](NC(=O)NCc1ccccc1)C(=O)N[C@@H](C)c1nc2c(F)cccc2[nH]1` [CEN-21, (S)-2-(3-Benzylureido)-4-((S)-2-ethylpiperidin-1-yl)-N—((S)-1-(4-fluoro-1H-benzo[d]imidazol-2-yl)ethyl)-4-oxobutanamide], the IC50 is 9.4 µM.

For the compound `CC[C@H]1CCCCN1C(=O)C[C@H](Nc1nc2ccccc2s1)C(=O)N[C@@H](C)c1nc2c(F)cccc2[nH]1` [CEN-22, (S)-2-(Benzo[d]thiazol-2-ylamino)-4-((S)-2-ethylpiperidin-1-yl)-N—((S)-1-(4-fluoro-1H-benzo[d]imidazol-2-yl)ethyl)-4-oxobutanamide], the IC50 turned out to be 1.2 µM.

For the compound `CC[C@H]1CCCCN1C(=O)C[C@H](NC(=O)OCc1ccccc1)C(=O)N[C@@H](C)c1nc2c(F)cccc2[nH]1` [CEN-23, Benzyl ((S)-4-((S)-2-Ethylpiperidin-1-yl)-1-(((S)-1-(4-fluoro-1H-benzo[d]imidazol-2-yl)ethyl)amino)-1,4-dioxobutan-2-yl)carbamate], the IC50 was found to be 5.8 µM.

`CC[C@H]1CCCCN1C(=O)C[C@H](NS(=O)(=O)CCC(C)C)C(=O)N[C@@H](C)c1nc2c(F)cccc2[nH]1` [CEN-24, (S)-4-((S)-2-Ethylpiperidin-1-yl)-N—((S)-1-(4-fluoro-1H-benzo[d]imidazol-2-yl)ethyl)-2-((3-methylbutyl)sulfonamido)-4-oxobutanamide]: the IC50 came to 17.8 µM.

As to `CC[C@H]1CCCCN1C(=O)C[C@H](NC(=O)[C@H]1C[C@@H]1c1ccccc1)C(=O)N[C@@H](C)c1nc2c(F)cccc2[nH]1` [CEN-25, (1S,2S)—N—((S)-4-((S)-2-Ethylpiperidin-1-yl)-1-(((S)-1-(4-fluoro-1H-benzo[d]imidazol-2-yl)ethyl)amino)-1,4-dioxobutan-2-yl)-2-phenylcyclopropane-1-carboxamide], the IC50 came to 8.1 µM.

As for `CC[C@H]1CCCCN1C(=O)C[C@H](NC(=O)N(C)Cc1ccccc1)C(=O)N[C@@H](C)c1nc2c(F)cccc2[nH]1` [CEN-26, (S)-2-(3-Benzyl-3-methylureido)-4-((S)-2-ethylpiperidin-1-yl)-N—((S)-1-(4-fluoro-1H-benzo[d]imidazol-2-yl)ethyl)-4-oxobutanamide], the IC50 was found to be 3.3 µM.
